Results from patent EP0418835B1, “Novel alkaline pullulanase y having alpha-amylase activity, microorganism producing the same, and process for producing the same” (KAO CORPORATION, priority 1989, dated 1991).

Legend:
Assay type in all cases: biochemical, Bacillus sp. KSM-AP1378
[1] = test system: alkaline pullulanase Y; test: Substrate specificity (relative activity on various substrates); conditions: substrate concentration 1 x 10⁻² M
Method: (§1) 0.1 ml of enzyme solution was added to 0.9 ml of each substrate solution prepared from each buffer solution containing pullulan (final concentration in the reaction system: 0.25% w/v) and the mixture was reacted at 40°C for 30 minutes. After the reaction, reducing sugars were quantitatively determined by means of the 3,5-dinitro-salicylic acid (DNS) procedure. Specifically, 1.0 ml of a DNS reagent was added to 1.0 ml of reaction mixture and the mixture was heated at 100°C for 5 minutes to develop a color. After cooling, the mixture was diluted by adding 4.0 ml of deionized water. This solution was subjected to colorimetric quantitative analysis at a wave length of 535 nm. One unit (1 U) of enzyme activity was defined as the amount of enzyme which released 1 µmol of reducing sugar (as glucose) per minute under the standard assay conditions.
Acts on pullulan, soluble starch, and glycogen. (See Table 1) Table 1

[2] = test system: alkaline pullulanase Y; test: Effects of metal ions and chelating agents on pullulanase activity (DNS reducing sugar assay)
Method: as §1

[3] = test system: alkaline pullulanase Y; test: Effects of metal ions and chelating agents on α-amylase activity (DNS reducing sugar assay)
Method: as §1, with “soluble starch” for “pullulan”, “50°C” for “40°C”, “15” for “30”, “a DNS method.” for “the 3,5-dinitro-salicylic acid (DNS) procedure.”

| Compound | Relative Activity (%) [1] [%] | Residual activity (%) Pullulanase Activity ([2]; metal salt 1 mM) [%] | Residual activity (%) α-amylase Activity ([3]; metal salt 1 mM) [%] | further results |
| --- | --- | --- | --- | --- |
| OC[C@H]1O[C@H](O[C@H]2[C@H](O)[C@@H](O)[C@@H](O[C@H]3[C@H](O)[C@@H](O)C(O)O[C@@H]3CO)O[C@@H]2CO)[C@H](O)[C@@H](O)[C@@H]1O (some centres unmarked) [Maltotriose] | 0 |  |  |  |
| OC[C@H]1O[C@H](OC[C@H]2OC(O)[C@H](O)[C@@H](O)[C@@H]2O)[C@H](O)[C@@H](O)[C@@H]1O (some centres unmarked) [Isomaltose] | 4 |  |  |  |
| OC[C@H]1O[C@@H](OC[C@H]2OC(O)[C@H](O)[C@@H](O)[C@@H]2O)[C@H](O)[C@@H](O)[C@@H]1O (some centres unmarked) [Gentiobiose] | 0 |  |  |  |
| O=C(O)CN(CCOCCOCCN(CC(=O)O)CC(=O)O)CC(=O)O [EGTA] |  |  |  | Residual activity (%) Pullulanase Activity ([2]; chelating agent 10 mM): 65%; Residual activity (%) α-amylase Activity ([3]; chelating agent 10 mM): 18%; Residual activity (%) α-amylase Activity when Ca⁺² ions was again added ([3]; chelating agent 10 mM, Ca⁺² ions added again (value in parenthesis)): 91% |
| O=C(O)CN(CCN(CC(=O)O)CC(=O)O)CC(=O)O [EDTA] |  |  |  | Residual activity (%) Pullulanase Activity ([2]; chelating agent 10 mM): 77% |
| OC[C@H]1O[C@H](OC[C@H]2O[C@H](OC[C@H]3OC(O)[C@H](O)[C@@H](O)[C@@H]3O)[C@H](O)[C@@H](O)[C@@H]2O)[C@H](O)[C@@H](O)[C@@H]1O (some centres unmarked) [Isomaltotriose] | 11 |  |  |  |
| [Cl][Cd][Cl] [CdCl₂] |  | 80 | 38 |  |
| OC[C@H]1O[C@H](O[C@H]2[C@H](O)[C@@H](O)C(O)O[C@@H]2CO)[C@H](O)[C@@H](O)[C@@H]1O (mixture of isomers) [Maltose] | 0 |  |  |  |
| [Cl][Pb][Cl] [PbCl₂] |  | 53 | 53 |  |
| [Cl][Mn][Cl] [MnCl₂] |  | 51 | 28 |  |
| [Cl-].[Cl-].[Zn+2] [ZnCl₂] |  | 93 | 57 |  |
| OC[C@H]1O[C@H](OC[C@H]2O[C@H](O[C@H]3[C@H](O)[C@@H](O)C(O)O[C@@H]3CO)[C@H](O)[C@@H](O)[C@@H]2O)[C@H](O)[C@@H](O)[C@@H]1O (some centres unmarked) [Panose] | 0 |  |  |  |
| HgCl₂ |  | 36 | 53 |  |
